According to patent US20090175838A1, “METHODS OF MODULATING IMMUNE FUNCTION” (priority 2007, published 2009):
No end group written: not given here. *: point of attachment. Biotin = O=C1N[C@H]2[C@H](CS[C@H]2CCCCC(=O)*)N1

Key:
[1] = system: cell surface CLIP on Raji or Daudi cells; assay: MKN1 (bioCLIP) effect on cell surface CLIP level (flow cytometry); type: cell-based, human; details: 24 and 48 hours
Experimental: (§1) The ability of MKN1 (bioCLIP) to alter cell surface CLIP and CD74 levels was determined using Raji or Daudi cells.
(§2) Data were analyzed by histogram with Y axis represents cell number of the 5000 live cells versus the X axis which is a reflection of relative FITC fluorescence with either antibodies to CLIP or CD74. The distance between the histogram from the isotype control staining versus the histogram reflecting the specific stain and is a measure of level of cell surface CLIP or CD74 when staining a population of live Raji or Daudi cells.
(§3) Cell Culture Conditions: The Raji and Daudi cell lines were purchased from American Type Culture Collection, were thawed, and grown in RPMI 1640 medium supplemented with standard supplements, including 10% fetal calf serum, gentamycin, penicillin, streptomycin, sodium pyruvate, HEPES buffer, 1-glutamine, and 2-ME.
(§4) Protocol: Cells were plated into a 12-well plate with 3 mls total volume containing approximately 0.5×10^6/mL for Daudi cells and 0.5×10^6/mL for Raji cells. […]
(§5) Harvested cells were stained using standard staining procedure that called for a 1:100 dilution of Fitc-anti-human CLIP or CD74 antibody (FITC, Pharmingen, Cat # 554647) or isotype control. […] Samples were acquired and analyzed on a Coulter Excel Flow Cytometer.

[2] = system: cell surface CD74 on Raji or Daudi cells; assay: MKN1 (bioCLIP) effect on cell surface CD74 level (flow cytometry); type: cell-based, human; details: 24 and 48 hours
Experimental: as §1, §2, §3, §4, §5

[3] = system: human B-cell lines, Raji and Daudi; assay: Binding of biotinylated synthetic peptide to B-cell lines (Streptavidin-PE flow cytometry); type: cell-based; details: 50 μM
Experimental: (§6) The ability of synthetic peptides to compete with binding of CLIP peptides and result in the cell surface expression of CD1d was determined.
(§7) Results: The results shown in FIG. 5 are expressed in histogram analyses. The Y axis represents cell number of the 5000 live cells versus the X axis which is a reflection of relative Fitc fluorescence versus Streptavidin-PE (eBioscience, Cat. #12-4317) that will bind with high affinity to cell-bound biotinylated peptides. The distance between the histogram from the isotype control staining versus the histogram reflecting the specific stain and is a measure of level of cell surface CD1d.
as §3
Protocol: Cells were plated into a 12 well plate with 3 mls total volume containing approximately 1.5×10^6/well for Daudi cells and 3.0×10^6/well for Raji cells. Treatment groups included no treatment as control and biotinylated […] (SEQ ID NO. 1) (also referred to as MKN 5) at 50 μM final concentration based on the reported molarity of the synthesized compounds. […]

[4] = system: cell surface CD1d on Raji and Daudi cells; assay: Cell surface expression of CD1d after competing peptide (flow cytometry, anti-CD1d); type: cell-based, human; details: 50 μM, both cell lines
Experimental: as §6, §7, §3
Protocol: Cells were plated into a 12 well plate with 3 mls total volume containing approximately 1.5×10^6/well for Daudi cells and 3.0×10^6/well for Raji cells. Treatment groups included no treatment as control and biotinylated […] […]
Harvested cells were stained using standard staining procedure that called for a 1:100 dilution of PE anti-CD1d. […] Samples were acquired and analyzed on a Coulter Excel Flow Cytometer.

Chain of cell surface CLIP on Raji or Daudi cells (P04233 97-120): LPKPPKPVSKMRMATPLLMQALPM

| Substance | cell surface CLIP level [1] | cell surface CD74 level [2] | binding of biotinylated peptide to B-cell lines ([3]; 4 hours) | binding of biotinylated peptide to B-cell lines ([3]; 24 hours) | cell surface expression of CD1d ([4]; 4 hours) | cell surface expression of CD1d ([4]; 24 hours) |
| --- | --- | --- | --- | --- | --- | --- |
| SGG GSK MRM ATP LLM QAL Y (Biotin-SGGGSKMRMATPLLMQALY) [MKN1 (bioCLIP)] | alters cell surface CLIP and CD74 levels | alters cell surface CLIP and CD74 levels | – | – | – | – |
| FRIMAVLAS (also: biotin) | – | – | bound with high affinity | Less binding | marginally | slightly more |
